ChEMBL document CHEMBL3091429, “Structure-activity relationships of retro-dihydrochalcones isolated from Tacca sp” (J Nat Prod, 2013)
pIC50: −log10 of the molar value. Activity calls are given as the source filed them. No cut-off for these calls is given here.

Legend:
Tubulin (Sus scrofa) = Tubulin (Sus scrofa) (UniProt P02554+P02550); assay: Inhibition of purified porcine tubulin polymerization 100 uM by spectrophotometry; assay type: protein assay
PC-3 = assay: Antiproliferative activity against human PC3 cells by SRB assay; assay type: functional, cell-based
A549 = assay: Antiproliferative activity against human A549 cells by SRB assay; assay type: functional, cell-based
HeLa = assay: Antiproliferative activity against human HeLa cells by SRB assay; assay type: functional, cell-based

Sequence of Tubulin (Sus scrofa) (P02550 whole entry, looked up): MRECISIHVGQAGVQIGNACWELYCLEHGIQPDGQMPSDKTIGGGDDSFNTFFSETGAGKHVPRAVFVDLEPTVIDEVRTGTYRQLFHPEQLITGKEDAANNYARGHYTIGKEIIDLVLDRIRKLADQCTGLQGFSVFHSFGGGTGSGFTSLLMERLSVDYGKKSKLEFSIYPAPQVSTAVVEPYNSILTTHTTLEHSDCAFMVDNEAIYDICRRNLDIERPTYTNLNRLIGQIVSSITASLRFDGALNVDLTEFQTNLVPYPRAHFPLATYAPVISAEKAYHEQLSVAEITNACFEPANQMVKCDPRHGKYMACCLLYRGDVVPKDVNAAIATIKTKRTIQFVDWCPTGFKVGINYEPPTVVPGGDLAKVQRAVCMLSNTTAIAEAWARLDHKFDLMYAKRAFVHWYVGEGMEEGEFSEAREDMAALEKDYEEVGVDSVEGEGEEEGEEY
Sequence of Tubulin (Sus scrofa) (P02554 whole entry, looked up): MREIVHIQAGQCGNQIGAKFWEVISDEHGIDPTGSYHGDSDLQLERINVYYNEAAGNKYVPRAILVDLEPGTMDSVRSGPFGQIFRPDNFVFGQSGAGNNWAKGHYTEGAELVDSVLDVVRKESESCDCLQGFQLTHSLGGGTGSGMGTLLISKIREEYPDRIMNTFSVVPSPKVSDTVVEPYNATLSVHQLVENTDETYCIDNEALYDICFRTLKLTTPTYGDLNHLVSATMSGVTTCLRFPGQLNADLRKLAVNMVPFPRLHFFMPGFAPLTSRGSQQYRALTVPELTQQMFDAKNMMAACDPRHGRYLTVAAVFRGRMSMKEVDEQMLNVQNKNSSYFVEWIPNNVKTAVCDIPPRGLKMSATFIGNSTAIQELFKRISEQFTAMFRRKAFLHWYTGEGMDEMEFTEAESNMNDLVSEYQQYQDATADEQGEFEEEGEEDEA

Structure (SMILES) | inhibition (Tubulin (Sus scrofa)) | pIC50 (PC-3) | pIC50 (A549) | pIC50 (HeLa)
COc1cc(OC)c(CCC(O)c2ccc3c(c2)OCO3)c(OC)c1 (configuration not stated) | Active | < 4.30 | < 4.30 | < 4.30
COC1=CC(=O)C(CCC(=O)c2ccc3c(c2)OCO3)=C(OC)C1=O | 40% | 5.30 | 5.08 | 5.06
COC1=CC(=O)C(CCC(=O)c2ccc(OC)c(OC)c2)=C(OC)C1=O | inactive | – | – | –

Now from value to molecule:

inhibition (Tubulin (Sus scrofa)) | pIC50 (PC-3) | pIC50 (A549) | pIC50 (HeLa) | Structure (SMILES)
Active | < 4.30 | < 4.30 | < 4.30 | COc1cc(O)c(CCC(=O)c2ccc(O)c(OC)c2)c(OC)c1
inactive | < 4.30 | < 4.30 | < 4.30 | COc1ccc(C(=O)CCc2c(OC)cc(OC)c(OC)c2OC)cc1OC
Active | – | – | – | COc1cc(OC)c(CCC(=O)c2ccc(OC)c(O)c2)c(OC)c1
10% | < 4.30 | 4.39 | 4.54 | COc1cc(OC)c(CCC(=O)c2ccc(O)c(OC)c2)c(OC)c1
